Laboratory results as given in patent US7662825B2, “N-pyrazinyl-phenylsulphonamides and their use in the treatment of chemokine mediated diseases” (AstraZeneca AB, priority 2002, dated 2010).

| SMILES | melting point |
| --- | --- |
| O=S(=O)(Nc1ncc(Cl)nc1OCc1cncc(Br)c1)c1cccc(Cl)c1Cl [Example 142, N-{3-[(5-Bromo-3-pyridinyl)methoxy]-5-chloro-2-pyrazinyl}-2,3-dichlorobenzenesulphonamide] | 199 to 201 °C |
| COc1nc(SCc2ccccc2Cl)cnc1NS(=O)(=O)c1cccc(Cl)c1Cl [Example 84, 2,3-Dichloro-N-[5-(2-chlorobenzylsulphanyl)-3-methoxy-2-pyrazinyl]benzenesulphonamide] | 119 to 120 °C |
| Cc1cnc(NS(=O)(=O)c2cccc(Cl)c2Cl)c(OCc2cccnc2)n1 [Example 24, 2,3-Dichloro-N-[5-methyl-3-(3-pyridinylmethoxy)-2-pyrazinyl]benzenesulphonamide] | 160 to 161 °C |
| COc1nc(N2CCOCC2)c(Cl)nc1NS(=O)(=O)c1cccc(Cl)c1Cl [Example 67, 2,3-Dichloro-N-[6-chloro-3-methoxy-5-(4-morpholinyl)-2-pyrazinyl]benzenesulphonamide] | 150 to 151 °C |
| COc1nc(Cl)cnc1NS(=O)(=O)c1ccc(Cl)cc1 [Example 53, 4-Chloro-N-(5-chloro-3-methoxy-2-pyrazinyl)benzenesulphonamide] | 179 to 180 °C |
| COc1cnc(NS(=O)(=O)c2cccc(Cl)c2Cl)c(OC)n1 [Example 56, 2,3-Dichloro-N-[3,5-dimethoxy-2-pyrazinyl]benzenesulphonamide] | 138 to 139 °C |
| NCc1ccc(COc2nccnc2NS(=O)(=O)c2cccc(Cl)c2Cl)o1 [Example 197, N-(3-(5-Aminomethyl-2-furanylmethoxy)-2-pyrazinyl)-2,3-dichlorobenzenesulphonamide] | 199 to 201 °C |
| COc1nc(OC)c(NS(=O)(=O)c2cccc(Cl)c2Cl)nc1Cl [Example 66, 2,3-Dichloro-N-(6-chloro-3,5-dimethoxy-2-pyrazinyl)benzenesulphonamide] | 163 to 165 °C |
| COc1nc(-c2ccc(F)cc2F)cnc1NS(=O)(=O)c1cccc(Cl)c1Cl [Example 81, 2,3-Dichloro-N-[5-(2,4-difluorophenyl)-3-methoxy-2-pyrazinyl]benzenesulphonamide] | 169 to 170 °C |
| O=S(=O)(Nc1ncc(Br)nc1OCc1cnccn1)c1cccc(Cl)c1Cl [Example 31, N-[5-Bromo-3-(2-pyrazinylmethoxy)-2-pyrazinyl]-2,3-dichlorobenzenesulphonamide] | 207 to 209 °C |
| O=S(=O)(Nc1nccnc1OCc1ccc(CO)cc1)c1cccc(Cl)c1Cl [Example 111, 2,3-Dichloro-N-[3-(4-hydroxymethylphenylmethoxy)-2-pyrazinyl]benzenesulphonamide] | 160 to 161 °C |
| Cc1ncccc1COc1nc(Cl)cnc1NS(=O)(=O)c1cccc(Cl)c1Cl [Example 92, 2,3-Dichloro-N-[5-chloro-3-(2-methyl-3-pyridinylmethoxy)-2-pyrazinyl]benzenesulphonamide] | 214 to 216 °C (dec.) |
| COc1nc(SC)cnc1NS(=O)(=O)c1cccc(Cl)c1Cl [Example 80, 2,3-Dichloro-N-(3-methoxy-5-methylsulphanyl-2-pyrazinyl)benzenesulphonamide] | 141 to 142 °C |
| O=S(=O)(Nc1ncc(Cl)nc1OCc1cccc(CO)c1)c1cccc(Cl)c1Cl [Example 106, 2,3-Dichloro-N-[5-chloro-3-(3-hydroxymethylphenylmethoxy)-2-pyrazinyl]benzenesulphonamide] | 162 to 163 °C |
| COc1nc(Oc2ccc(C(=O)O)cc2)cnc1NS(=O)(=O)c1cccc(Cl)c1Cl [Example 73, 4-[5-(2,3-Dichlorobenzenesulphonylamino)-6-methoxy-2-pyrazinyloxy]benzoic acid] | 186 to 187 °C |
| COC(=O)c1nccnc1NS(=O)(=O)c1cccc(Cl)c1Cl [Example 124, 3-{[(2,3-Dichlorophenyl)sulphonyl]amino}pyrazine-2-carboxylic acid, methyl ester] | 177 to 178 °C |
| COc1nc(Br)cnc1NS(=O)(=O)c1ccccc1C#N [Example 184, N-(5-Bromo-3-methoxypyrazinyl)-2-cyanobenzenesulphonamide] | 190 to 191.5 °C |
| C=CCOc1cnc(NS(=O)(=O)c2cccc(Cl)c2Cl)c(OC)n1 [Example 139, N-(5-Allyloxy-3-methoxy-2-pyrazinyl)-2,3-dichlorobenzenesulphonamide] | 120 to 121 °C |
| COc1nc(C)cnc1NS(=O)(=O)c1ccc(Cl)cc1Cl [Example 47, 2,4-Dichloro-N-(3-methoxy-5-methyl-2-pyrazinyl)benezenesulphonamide] | 135 to 136 °C |
| N#Cc1cnc(NS(=O)(=O)c2cccc(Cl)c2Cl)c(OCc2cccnc2)n1 [Example 78, 2,3-Dichloro-N-[5-cyano-3-(3-pyridinylmethoxy)-2-pyrazinyl]benzenesulphonamide] | 222 to 224 °C |
| COc1nc(Br)c(Cl)nc1NS(=O)(=O)c1cccc(Cl)c1Cl [Example 125, N-(5-Bromo-6-chloro-3-methoxy-2-pyrazinyl)-2,3-dichlorobenzenesulphonamide] | 177 to 178 °C |

| SMILES | melting point |
| --- | --- |
| Cc1cnc(NS(=O)(=O)c2cccc(Cl)c2Cl)c(OCc2ncccc2C)n1 [Example 26, 2,3-Dichloro-N-[5-methyl-3-(3-methyl-2-pyridinylmethoxy)-2-pyrazinyl]benzenesulphonamide] | 137 to 138 °C |
| CN(C)Cc1ccc(COc2nc(Cl)cnc2NS(=O)(=O)c2cccc(Cl)c2Cl)o1 [Example 182, 2,3-Dichloro-N-[5-chloro-3-(5-dimethylaninomethyl-2-furanylmethoxy)-2-pyrazinyl]benzenesulphonamide] | 209 to 210 °C |
| COc1nc(Cl)c(Cl)nc1NS(=O)(=O)c1ccc(Cl)c(Cl)c1 [Example 64, 3,4-Dichloro-N-(5,6-dichloro-3-methoxy-2-pyrazinyl)benzenesulphonamide] | 189 to 191 °C |
| COc1ncc(Cl)nc1NS(=O)(=O)c1ccc(Cl)c(Cl)c1 [Example 42, N-(6-Chloro-3-methoxy-2-pyrazinyl)-3,4-dichlorobenezenesulphonamide] | 176 to 177 °C |
| COC(=O)c1cnc(NS(=O)(=O)c2cccc(Cl)c2Cl)c(OCc2cccnc2)n1 [Example 134, 5-(2,3-Dichlorobenzenesulphonylamino)-6-(3-pyridinylmethoxy)pyrazine-2-carboxylic acid, methyl ester] | 209 to 210 °C |
| COc1cccc(S(=O)(=O)Nc2nccnc2OC)c1Cl [Example 132, 2-Chloro-3-methoxy-N-(3-methoxy-2-pyrazinyl)benzenesulphonamide] | 151 to 152 °C |
| COc1nc(Cl)c(Cl)nc1NS(=O)(=O)c1cccc(Cl)c1Cl [Example 59, 2,3-Dichloro-N-(5,6-dichloro-3-methoxy-2-pyrazinyl)benzenesulphonamide] | 172 to 173 °C |
| O=S(=O)(Nc1nc(Cl)cnc1OCc1cccnc1)c1cccc(Cl)c1Cl [Example 99, 2,3-Dichloro-N-[6-chloro-3-(3-pyridinylmethoxy)-2-pyrazinyl]benzenesulphonamide] | 203 to 204 °C |
| NCc1ccc(COc2nc(Cl)cnc2NS(=O)(=O)c2cccc(Cl)c2Cl)o1 [Example 196, N-(3-(5-Aminomethyl-2-furanylmethoxy)-5-chloro-2-pyrazinyl)-2,3-dichloro-benzenesulphonamide] | 201 to 202 °C |
| COc1nc(Br)cnc1NS(=O)(=O)c1ccccc1OC(F)(F)F [Example 49, N-(5-Bromo-3-methoxy-2-pyrazinyl)-2-trifluoromethoxybenezenesulphonamide] | 156 to 157 °C |
| COc1nc(Cl)cnc1NS(=O)(=O)c1cccc(F)c1Cl [Example 130, 2-Chloro-N-(5-chloro-3-methoxy-2-pyrazinyl)-3-fluorobenzenesulphonamide] | 159 to 159.5 °C |
| O=S(=O)(Nc1ncc(Br)nc1OCc1cccnn1)c1cccc(Cl)c1Cl [Example 33] | 115 to 120 °C |
| COc1nccnc1NS(=O)(=O)c1ccc(F)c(Cl)c1Cl [Example 207, 2,3-Dichloro-4-fluoro-N-(3-methoxy-2-pyrazinyl)benzenesulphonamide] | 192 to 194 °C |
| COc1nc(Cl)c(Cl)nc1NS(=O)(=O)c1ccc(Cl)cc1Cl [Example 63, 2,4-Dichloro-N-(5,6-dichloro-3-methoxy-2-pyrazinyl)benzenesulphonamide] | 171 to 172 °C |
| O=S(=O)(Nc1ncc(Cl)nc1OCc1ccc(CNC2CC2)o1)c1cccc(Cl)c1Cl [Example 210, 2,3-Dichloro-N-[5-chloro-3-(5-cyclopropylaminomethyl-2-furanylmethoxy)-2-pyrazinyl]-benzenesulphonamide] | 175 to 176 °C |
| Cc1cccc(COc2nc(Cl)cnc2NS(=O)(=O)c2cccc(Cl)c2Cl)n1 [Example 93, 2,3-Dichloro-N-[S-chloro-3-(6-methyl-2-pyridinylmethoxy)-2-pyrazinyl]benzenesulphonamide] | 158 to 159 °C |
| O=S(=O)(Nc1ncc(Cl)nc1OCc1ccc(CO)cc1)c1cccc(Cl)c1Cl [Example 109, 2,3-Dichloro-N-[5-chloro-3-(4-hydroxymethylphenylmethoxy)-2-pyrazinyl]benzenesulphonamide] | 177 to 178 °C |
| COc1nc(-c2cnccn2)cnc1NS(=O)(=O)c1cccc(Cl)c1Cl [Example 72, 2,3-Dichloro-N-[6-methoxy-5-([2,2′]bipyrazinylyl)]benzenesulphonamide] | 199 to 200 °C |
| COc1nc(Cl)c(Cl)nc1NS(=O)(=O)c1ccc(Cl)cc1 [Example 62, 4-Chloro-N-(5,6-dichloro-3-methoxy-2-pyrazinyl)benzenesulphonamide] | 186 to 187 °C |
| O=S(=O)(Nc1ncc(Cl)nc1OCc1cncnc1)c1cccc(Cl)c1Cl [Example 37, N-[5-Chloro-3-(5-pyrimidinylmethoxy)-2-pyrazinyl]-2,3-dichlorobenzenesulphonamide] | 205 to 206 °C |
| C#CCOc1cnc(NS(=O)(=O)c2cccc(Cl)c2Cl)c(OC)n1 [Example 198, 2,3-Dichloro-N-[3-methoxy-5-(2-propyn-1-yloxy)-2-pyrazinyl]benzenesulphonamide] | 110 to 112 °C |
